Values after ≈ are worked out from the molar mass of the structure shown. Read-outs that look alike come from different tables or passages of the source.
Columns and labels:
hypercholesterolemia = assay: Effect on experimental hypercholesterolemia in male rats; format: in vivo, male Wistar rats, HOE: WISKf (SPF 71) strain; conditions: 100 mg/kg/day, oral, 7 days
Procedure: Groups of in each case 10 male rats of the HOE: WISKf (SPF 71) strain with a weight of about 200 g received each day in the morning a cocktail which contained the substances required to generate a combined dietetic/hormonal hypercholesterolemia, and in each case the product to be tested for the inhibition of hypercholesterolemia, in appropriate dosage. The cocktail was composed of a mixture of 100 g of cholesterol, 30 g of propylthiouracil and 100 g of cholic acid in 1 l of peanut oil. 1 ml of this/100 g of body weight was administered by gavage. The products to be tested were suspended in this cocktail in a concentration such that it contained the daily dose indicated in Table 4 on administration of the amount mentioned above. The other procedure for the treatment and the analysis of the individual parameters were carried out as indicated under 4.1.
Clofibrate was used as comparison product. The results are compiled in Table 4, wherein a) indicates the absolute values and b) indicates the percentage changes.

serum lipoproteins = assay: Effect on serum lipoproteins of normolipemic male rats in a subchronic test; format: in vivo, male Wistar rats, HOE: WISKf (SPF 71) strain; conditions: 100 mg/kg/day, oral, 7 days
Procedure: 4.1 Effect on serum lipoproteins of normolipemic male rats in a subchronic test
Groups of in each case 10 male rats of the HOE: WISKf (SPF 71) strain with an initial weight above 180 g received once a day (in the morning) the test product or the comparison product in 1% aqueous ®Tylose MH 300 solution by stomach tube (0.5 ml/100 g of body weight); the control group in each case received only the vehicle. The last (7th) administration took place 24 hours before removal of blood and sacrifice. There was free access to food and water during the test. The food was withdrawn 24 hours before the removal of blood.
The serum from all 10 rats in a group was pooled for the analysis of the serum lipoproteins. The serum lipoproteins were separated with a preparative ultracentrifuge (KONTRON TGA 65, Rotor BECKMAN 50.4 Ti).
The following conditions specified by Koga, S., Horwitz, D. L., and Scanu, A. M., Journal of Lipid Research 10, 577 (1969) and Havel, R. J., Eder, H. A., and Bragdon, H. H., J. Clin. Invest. 34, 1345 (1955) were used to separate VLDL, LDL and HDL:
Test kits from BOEHRINGER/Mannheim were used for the enzymatic determination of cholesterol and triglycerides in the separated lipoprotein fractions (compare Siedel, J., Schlumberger, H., Klose, S., Ziegenhorn, J. and Wahlefeld, A. W., J. Clin. Chem. Clin. Biochem. 19, 838 (1981) and Wahlefeld, A. W., in: H. O. Bergmeier: Methoden der enzymatischen Analyse (Methods of Enzymatic Analysis), 2nd edition, Volume II, Verlag Chemie 1974, page 1878). The proteins were determined by the method of Lowry (Lowry, O. H., Roseborough, N. J., Farr, A. L. and R. J. Randell, J. Biol. Chem. 193, 265 (1951)).
Clofibrate was used as comparison product.

[1] = tested on: carbohydrate-induced hypertriglyceridemia; assay: Inhibition of carbohydrate-induced hypertriglyceridemia; format: in vivo, male Sprague-Dawley rats
Procedure: Groups of in each case 10 male Sprague-Dawley rats (supplied by the breeder Mollegard with a weight of 250-280 g) received on each of 4 consecutive days one administration of the compound dissolved in PEG 400 by gavage. In addition, after the 3rd administration and 8 and 24 hours later they received 2.5 g of fructose/kg, likewise by gavage. Moreover, after the 3rd administration of product, 50% strength fructose solution was offered to them as drinking water ad libitum, and the food was withdrawn. Retroorbital removal of blood, from which the serum was obtained for the triglyceride determination and VLDL preparation in the ultracentrifuge (flotation at d=1.006), took place 3 hours after the last product/fructose administration. The food received by the animals from 1 week before the 1st administration and up to the 3rd administration was a diet with 40% casein in the feed meal.
The animals develop, as a result of this treatment, a hypertriglyceridemia which approximately corresponds to Fredrickson phenotype IV in humans. The serum triglycerides of the normal animals increased from 0.54 to 1.1 mmol/l, and the VLDL triglycerides from 0.67 to 1.81.

physchem = conditions: water
[2] = tested on: colon carcinoma cells, HT 29; assay: MTT assay, inhibition of cell proliferation, HT 29; format: cell-based; conditions: Homo sapiens, 72 hours incubation
Procedure: (§1) The reduced inhibitory effect on cell proliferation was tested on exponentially growing animal (mouse leukemia cells, L 1210) and human (bronchial carcinoma cells, A 549; colon carcinoma cells, HT 29) tumor cells. This entailed the tumor cells being incubated in RPMI standard medium with various concentrations of the test substances for 72 hours. Cell incubations only in fresh medium served as control. Incubations were set up in quadruplet. […] After incubation for a further 7 to 24 hours, the cell supernatant was carefully removed and the formazan dye in the cells was solubilized by adding DMSO and measured quantitatively by photometry at 492 nm. The ratio of the extinction of the substance incubations to the control incubation was quantified. The coefficient of variation in each incubation series was less than 15%. The following Table 6 indicates the IC50 values (IC50 [μg/ml] is the concentration of the test substance per ml which is necessary for 50% inhibition) from these investigations.

[3] = tested on: mouse leukemia cells, L 1210; assay: MTT assay, inhibition of cell proliferation, L1210; format: cell-based; conditions: 72 hours incubation
Procedure: as §1

[4] = tested on: bronchial carcinoma cells, A 549; assay: MTT assay, inhibition of cell proliferation, A 549; format: cell-based; conditions: Homo sapiens, A549; 72 hours incubation
Procedure: as §1

[5] = Table 1, Temp. [°C]: No. 1 25.0, 2 23.0, 3 26.2, 4 25.1, 5 25.2, 6 24.1, 7 24.5, 8 24.2, 9 24.2, 10 25.7, 11 25.8
[6] = Table 2, Temp. [°C]: hydrochloride 25.0, nitrate 23.5, p-toluenesulfonate 23.2, hydrogen (R,R)-tartrate 24.6, free base 24.8

Structure (SMILES): CCOC(=O)C(C)(C)Oc1ccc(Cl)cc1 [Clofibrate, reference compound]
- % change compared with control, protein "HDL" d > 1.04 (hypercholesterolemia): -27%
- % change compared with control, protein LDL (hypercholesterolemia): +16%
- % change compared with control, protein VLDL (hypercholesterolemia): -63%
- % change compared with control, total cholesterol "HDL" d > 1.04 (hypercholesterolemia): +10%
- % change compared with control, total cholesterol LDL (hypercholesterolemia): +16%
- % change compared with control, total cholesterol VLDL (hypercholesterolemia): +27%
- % change compared with control, triglycerides VLDL (hypercholesterolemia): +21%
- Lipoprotein fraction protein "HDL" (hypercholesterolemia): 3920
- Lipoprotein fraction protein LDL (hypercholesterolemia): 1435
- Lipoprotein fraction protein VLDL (hypercholesterolemia): 809
- Lipoprotein fraction total cholesterol "HDL" (hypercholesterolemia): 648
- Lipoprotein fraction total cholesterol LDL (hypercholesterolemia): 5434
- Lipoprotein fraction total cholesterol VLDL (hypercholesterolemia): 5924
- Lipoprotein fraction triglycerides VLDL (hypercholesterolemia): 1770
- Serum % change compared with control at the end of treatment, total cholesterol (hypercholesterolemia): +20%
- Serum % change compared with control at the end of treatment, triglycerides (hypercholesterolemia): +26%
- Triglycerides, pool (hypercholesterolemia): 3.68 mmol/L
- Total cholesterol (x) (hypercholesterolemia; mean x): 880 mg/dL
- % change compared with control, protein LDL (serum lipoproteins): -32%
- % change compared with control, total cholesterol LDL (serum lipoproteins): -31%
- % change compared with control, total cholesterol VLDL (serum lipoproteins): -30%
- % change compared with control, triglycerides VLDL (serum lipoproteins): -34%
- Triglycerides in serum, % change from fructose control ([1]; 100 mg/kg/day, oral, 4 days): -25%
- Triglycerides in the VDVL fraction, % change from fructose control ([1]; 100 mg/kg/day, oral, 4 days): -37%
- Triglycerides in the VDVL fraction, pool n = 10 ([1]; 100 mg/kg/day, oral, 4 days): 1.15 mmol/L
- Triglycerides in serum (x) ([1]; 100 mg/kg/day, oral, 4 days, mean x): 0.83 mmol/L
- Inhibitory effect on increase in VLDL triglycerides (in words) ([1]; dose 100 times higher than 1 mg/kg/day): only a slight inhibitory effect

Structure (SMILES): CC1(C)CN(c2ncc(C(=O)Nc3cccc(C(F)(F)F)c3)c(N)n2)C(=O)N1 [Compound 2]
- Solubility in water: Concentration in % by weight [5]: 0.08 % by weight
- Solubility in water: Molarity [5]: 0.90 × 10^-3

Structure (SMILES): CC1(C)CN(c2ncc(C(=O)Nc3ccc(F)c(C(F)(F)F)c3)c(N)n2)C(=O)N1 [Compound 3]
- 1 part by mass dissolves in . . . parts of H2 O [5]: 703 parts of H2 O

Structure (SMILES): CC1(C)CN(c2ncc(C(=O)Nc3cc(C(F)(F)F)ccc3Cl)c(N)n2)C(=O)N1 [Compound 4]
- 1 part by mass dissolves in . . . parts of H2 O [5]: 217 parts of H2 O

Structure (SMILES): CC1(C)CN(c2ncc(C(=O)Nc3ccc(Cl)c(C(F)(F)F)c3)c(N)n2)C(=O)N1 [Compound 5]
- 1 part by mass dissolves in . . . parts of H2 O [5]: 1055 parts of H2 O

Structure (SMILES): COc1ccc(C(F)(F)F)cc1NC(=O)c1cnc(N2CC(C)(C)NC2=O)nc1N [Compound 6]
- Solubility in water (in words): sparingly soluble in water
- 1 part by mass dissolves in . . . parts of H2 O [5]: 75 parts of H2 O

Structure (SMILES): COc1ccc(NC(=O)c2cnc(N3CC(C)(C)NC3=O)nc2N)cc1C(F)(F)F [Compound 7]
- 1 part by mass dissolves in . . . parts of H2 O [5]: 554 parts of H2 O

Structure (SMILES): CCCC1(C)CN(c2ncc(C(=O)Nc3cc(C(F)(F)F)ccc3Cl)c(N)n2)C(=O)N1 (stereo not drawn) [Compound 8]
- 1 part by mass dissolves in . . . parts of H2 O [5]: 781 parts of H2 O

Structure (SMILES): CN(C(=O)c1cnc(N2CC(C)(C)NC2=O)nc1N)c1cccc(C(F)(F)F)c1.O=C(O)C(O)C(O)C(=O)O [Hydrogen (R,R)-tartrate, 4-amino-2-(4,4-dimethyl-2-oxo-1-imidazolidinyl)pyrimidine-5-carboxylic acid N-methyl-N-(3-trifluoromethylphenyl)amide hydrogen (R,R)-tartrate]
- 1 part by mass dissolves in . . . parts of H2 O [6]: < 9.90 parts of H2 O
- solubility (physchem): > 91 mg/mL

Structure (SMILES): CN(C(=O)c1cnc(N2CC(C)(C)NC2=O)nc1N)c1cccc(C(F)(F)F)c1.O=[N+]([O-])O [Nitrate, 4-amino-2-(4,4-dimethyl-2-oxo-1-imidazolidinyl)pyrimidine-5-carboxylic acid N-methyl-N-(3-trifluoromethylphenyl)amide nitrate]
- 1 part by mass dissolves in . . . parts of H2 O [6]: 8.13 parts of H2 O
- solubility (physchem): 110 mg/mL

Structure (SMILES): CC1(C)CN(c2ncc(C(=O)Nc3cccc(C(F)(F)F)c3)c(N)n2)C(=O)N1 [No. 1, 4-amino-2-(4,4-dimethylimidazolidin-2-on-1-yl)pyrimidine-5-carboxylic acid N-(3-trifluoromethylphenyl)amide, reference compound]
- IC50 [2]: 4.3 µg/mL (≈ 10.9 µM)
- IC50 [3]: 0.7 µg/mL (≈ 1.78 µM)
- IC50 [4]: 3.4 µg/mL (≈ 8.62 µM)

Structure (SMILES): CCCC1(C)CN(c2ncc(C(=O)Nc3ccc(Cl)c(C(F)(F)F)c3)c(N)n2)C(=O)N1 (stereo not drawn) [No. 9, reference compound]
- 1 part by mass dissolves in . . . parts of H2 O [5]: 725 parts of H2 O
- Solubility in water: Concentration in % by weight [5]: 0.13 % by weight

Structure (SMILES): CCCC1(C)CN(c2ncc(C(=O)Nc3cccc(C(F)(F)F)c3)c(N)n2)C(=O)N1 (stereo not drawn) [No. 10, reference compound]
- 1 part by mass dissolves in . . . parts of H2 O [5]: 255 parts of H2 O
- Solubility in water: Molarity [5]: 8.54 × 10^-3

Structure (SMILES): CC1NC(=O)N(c2ncc(C(=O)Nc3cccc(C(F)(F)F)c3)c(N)n2)C1C (stereo not drawn) [No. 11, reference compound]
- 1 part by mass dissolves in . . . parts of H2 O [5]: 277 parts of H2 O

Structure (SMILES): CC1(C)CN(c2ncc(C(=O)Nc3cccc(C(F)(F)F)c3)c(N)n2)C(=O)N1 [imanixil, 4-amino-2-(4,4-dimethylimidazolidin-2-on-1-yl)pyrimidine-5-carboxylic acid N-(3-trifluoromethylphenyl)amide, reference compound]
- Solubility in water (in words): exceptionally slightly soluble in water

Structure (SMILES): CN(C(=O)c1cnc(N2CC(C)(C)NC2=O)nc1N)c1cccc(C(F)(F)F)c1.Cc1ccc(S(=O)(=O)O)cc1 [p-Toluenesulfonate, 4-amino-2-(4,4-dimethyl-2-oxo-1-imidazolidinyl)pyrimidine-5-carboxylic aci d N-methyl-N-(3-trifluoromethylphenyl)amide p-toluenesulfonate]
- 1 part by mass dissolves in . . . parts of H2 O [6]: 14.44 parts of H2 O
- solubility (physchem): 65 mg/mL

From patent US5795899A, “Soluble salts of 4-amino-2-(4,4-dimethylimidazolidin-2-on-1-yl) pyrimidine-5-carboxylic acid N-methyl-N-(3-trifluoromethylphenyl)-amide, a process for the preparation thereof, the use thereof as pharmaceuticals and starting materials” (Hoechst Aktiengesellschaft, priority 1992, dated 1998)
